Experiments:
[1] = target: T1, PGK1 (Homo sapiens, UniProt P00558); experiment: Recombinant PGK1 assay (GAPDH/PGK1 coupled assay, NADH absorbance); format: biochemical; settings: absorbance 340 nm
T1 sequence (P00558 1-417): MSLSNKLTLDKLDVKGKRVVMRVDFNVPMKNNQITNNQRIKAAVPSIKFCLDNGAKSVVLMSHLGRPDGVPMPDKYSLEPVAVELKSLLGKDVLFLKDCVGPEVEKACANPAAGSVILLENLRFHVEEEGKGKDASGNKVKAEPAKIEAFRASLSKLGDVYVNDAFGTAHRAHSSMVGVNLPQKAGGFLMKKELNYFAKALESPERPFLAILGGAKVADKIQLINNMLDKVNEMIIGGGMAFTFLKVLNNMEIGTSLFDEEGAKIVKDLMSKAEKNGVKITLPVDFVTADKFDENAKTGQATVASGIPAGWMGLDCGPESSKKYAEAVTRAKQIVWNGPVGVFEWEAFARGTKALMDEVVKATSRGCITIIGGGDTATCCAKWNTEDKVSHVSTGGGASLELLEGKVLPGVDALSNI
From the text: FIG. 6A-D. CBR-470-1 inhibits PGK1 in vitro and in situ. (a) Schematic of the GAPDH/PGK1 coupled assay. Pre-equilibration of the GAPDH reaction (top left) results in an NAD^+/NADH equilibrium, which upon addition of PGK1 and ADP pulls the reaction to the right producing more NADH. Monitoring NADH absorbance after addition of PGK1 (bottom right) can be used to monitor PGK1 activity in the forward direction (right). […] (c, d) Relative level of central metabolites in IMR32 cells treated with viral knockdown of PGK1 for 72 hours (c) (n=4) and with CBR-470-1 relative DMSO alone for the indicative times (d) (n=3). Each metabolite is normalized to the control condition at each time point. Data shown represent mean±SEM of biologically independent samples.
Recombinant PGK1 assay. PGK1 enzymatic activity in the forward direction was measured with a coupled enzymatic assay^34. Three PGK1 conditions were prepared by dissolving recombinant PGK1 in potassium phosphate buffer (10 mM KH2PO4, 10 mM MgSO4, pH 7.0), and transferring the aliquots of PGK1 solution to the microtubes being treated with same amount of DMSO and indicated concentrations of CBR-470-1. Final concentration of PGK1 is 20 ng/mL and DMSO is 1% for each sample. […] The change in absorbance at 340 nm at room temperature was measured every 20 seconds for 45 minutes, by Tecan Infinite M200 plate reader. […]

[2] = target: T1, PGK1; experiment: Dye-based thermal denaturation assay; format: binding; settings: recombinant PGK1, compound 20 μM
Procedure: FIG. 5A-E. A photoactivatable affinity probe-based approach identifies PGK1 as the relevant cellular target of CBR-470-1. (a) Silver staining and anti-biotin Western blots of ammonium sulfate fractionated lysates from UV-irradiated IMR32 cells treated with 5 μM for 1 hour with or without CBR-470-1 competition (250 μM) (n=3). Shown on the right are initial proteomic target results from gel-band digestion and LC-MS/MS analysis. (b) Dye-based thermal denaturation assay with recombinant PGK1 in the presence CBR-470-1 (20 μM) or vehicle alone (n=3). Calculated Tm values are listed. (c, d) Dose-dependent thermal stability assay of recombinant PGK1 and GAPDH in the presence of increasing doses of CBR-470-1 near the Tm of both proteins (57° C.) (c) (n=5) or room temperature (d) (n=3). Western blot of sample supernatants after centrifugation (13,000 rpm) detected total PGK1 and GAPDH protein, which were plotted in Prism (below). (e) ARE-LUC reporter activity in HEK293T cells with transient shRNA.
Dye-based thermal denaturation assay. Thermal denaturation experiments were performed using a Protein Thermal Shift Dye Kit (ThermoFisher, 4461146). […] Fluorescence values were recorded using a Viia7 Real-Time PCR instrument according to supplied instructions.

[3] = test system: NRF2-dependent luciferase reporter (pTI-ARE-LUC); experiment: ARE-LUC reporter assay in HEK293T cells with PGK1 knockdown or overexpression; format: cell-based
Procedure: FIG. 1A-D. CBR-470-1-dependent inhibition of glycolysis activates NRF2 signaling. […] PGK1, Actin and Tubulin protein levels are shown from representative experiments (n=3). (c) Heat map depiction of relative metabolite levels in IMR32 cells treated for 30 min with CBR-470-1 (left) or viral shRNA knockdown of PGK1 (right) relative to DMSO and scramble shRNA controls, respectively. BPG refers to both 2,3-BPG and 1,3-BPG, whereas 1,3-BPG specifically refers to the 1,3-isomer.
High throughput screening and ARE-LUC reporter assay. For high throughput screening, IMR32 cells were plated at 5×10^3 cells per well in white 384-well plates in 40 μL of growth medium. […] After 24 hour incubation, ARE-LUC luminance values were recorded on an Envision instrument after the addition of 30 μL of Bright Glo reagent solution (Promega, diluted 1:3 in water). […] For overexpression and knockdown experiments in HEK293T with ARE-LUC reporter readouts, 5×10^5 cells were plated on poly-d-lysine coated plates and transfected with 1.5 μg of overexpression or shRNA plasmid and 500 ng of pTI-ARE-LUC using Optimem medium and Fugene in the same mode as above. […] ARE-LUC luminance values were recorded on an Envision plate reader 24 hours later by the addition of 75 μL of Bright Glo reagent solution (1:3 in water).

shift in PGK1 thermal stability [2]: consistent shift in PGK1 stability
EC50 of ARE-LUC reporter activation ([3]; knockdown of PGK1): decreased
EC50 of ARE-LUC reporter activation ([3]; overexpression of PGK1): increased
Compound: CC(C)CN[C@H]1CS(=O)(=O)C[C@@H]1S(=O)(=O)c1ccc(Cl)cc1 [CBR-470-1]
PGK1-dependent activity and accumulation of NADH [1]: significantly inhibits PGK1-dependent activity and accumulation of NADH

— patent US12048686B2, “Compositions and methods for activating NRF2-dependent gene expression” (The University of Chicago, priority 2018, dated 2024)
